{"source": "patent US20090227816A1", "about": "“Process for preparing polybrominated compounds” (BROMINE COMPOUNDS LTD., priority 2006, published 2009)", "type": "physicochemical", "procedure": "The solubility of Deca in bromine was determined as 2.64 g Deca in 100 g bromine at 20° C."}
{"smiles": "Brc1c(Br)c(Br)c(Oc2c(Br)c(Br)c(Br)c(Br)c2Br)c(Br)c1Br", "note": "[Deca, decabromodiphenyl ether]", "values": [{"measurement": "solubility of Deca in bromine", "value": 2.64, "unit": "g Deca in 100 g bromine"}]}
